Laboratory results: PubChem BioAssay AID2060625 (Molecular Pharmacology Branch, DTP, NCI, 2025)

The compounds below were run on 186277-243-T-J2-PDC spheroids with HUVEC/MSC, viability (assay: Anticancer human tumor 186277-243-T-J2-PDC patient-derived colon adenocarcinoma cell line growth inhibition [CLK]). Details: second compound 0.0316 µM; first compound 3.16 µM; active compounds read low.
Summary of the method: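 Patient-derived tumor cells grown as complex spheroids with HUVEC endothelial cells and mesenchymal stem cells, treated with drug combinations. Concentrations descend in half-log steps from near clinical Cmax, or from 10 microM if Cmax unknown.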
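Also: compound exposure lasted seven days before readout; 100% = DMSO vehicle control wells.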

First: Nc1ccn(C2OC(CO)C(O)C2(F)F)c(=O)n1 (stereo unspecified) + CNC(=O)c1ccc(Nc2nc(OC3CCCC3)c3c(-c4ccc5nc(C)oc5c4)c[nH]c3n2)c(OC)c1
Second: CC(Nc1ccc2c(c1)OCCn1cc(N3C(=O)OCC3C(F)F)nc1-2)C(N)=O (stereo unspecified) + CNC(=O)c1ccc(Nc2nc(OC3CCCC3)c3c(-c4ccc5nc(C)oc5c4)c[nH]c3n2)c(OC)c1
The viability, T/C of the first is lower: 14.7% for the first, 46.6% for the second.

Compared with `O=c1[nH]cc(F)c(=O)[nH]1` + CNC(=O)c1ccc(Nc2nc(OC3CCCC3)c3c(-c4ccc5nc(C)oc5c4)c[nH]c3n2)c(OC)c1, `Nc1ccccc1NC(=O)c1ccc(CNC(=O)OCc2cccnc2)cc1` + CNC(=O)c1ccc(Nc2nc(OC3CCCC3)c3c(-c4ccc5nc(C)oc5c4)c[nH]c3n2)c(OC)c1 is lower in viability, T/C: 86.2% for the first, 48% for the second.

Same assay, conditions: second compound 0.0316 µM; first compound 10 µM; active compounds read low

First: Nc1ccn(C2OC(CO)C(O)C2(F)F)c(=O)n1 (stereo unspecified) + CNC(=O)c1ccc(Nc2nc(OC3CCCC3)c3c(-c4ccc5nc(C)oc5c4)c[nH]c3n2)c(OC)c1
Second: CC(Nc1ccc2c(c1)OCCn1cc(N3C(=O)OCC3C(F)F)nc1-2)C(N)=O (stereo unspecified) + CNC(=O)c1ccc(Nc2nc(OC3CCCC3)c3c(-c4ccc5nc(C)oc5c4)c[nH]c3n2)c(OC)c1
The viability, T/C of the first is lower: 13.9% for the first, 30.5% for the second.

Compared with `O=c1[nH]cc(F)c(=O)[nH]1` + CNC(=O)c1ccc(Nc2nc(OC3CCCC3)c3c(-c4ccc5nc(C)oc5c4)c[nH]c3n2)c(OC)c1, `Nc1ccccc1NC(=O)c1ccc(CNC(=O)OCc2cccnc2)cc1` + CNC(=O)c1ccc(Nc2nc(OC3CCCC3)c3c(-c4ccc5nc(C)oc5c4)c[nH]c3n2)c(OC)c1 is lower in viability, T/C: 56.8% for the first, 11% for the second.

Same assay, conditions: second compound 0.1 µM; first compound 0.000316 µM; active compounds read low

In the case of `Cn1ncnc1[C@H]1c2n[nH]c(=O)c3cc(F)cc(c23)N[C@@H]1c1ccc(F)cc1` + CN1CCN(c2cc(C(=O)Nc3cc4cc(-c5cnn(C)c5)ccc4cn3)ccn2)CC1, the viability, T/C is reported as 73.9%.

Same assay, conditions: second compound 0.1 µM; first compound 0.001 µM; active compounds read low

Compound `Cn1ncnc1[C@H]1c2n[nH]c(=O)c3cc(F)cc(c23)N[C@@H]1c1ccc(F)cc1` + CN1CCN(c2cc(C(=O)Nc3cc4cc(-c5cnn(C)c5)ccc4cn3)ccn2)CC1 has a viability, T/C of 75.6%.

Same assay, conditions: second compound 0.1 µM; first compound 0.00316 µM; active compounds read low

Compound `Cn1ncnc1[C@H]1c2n[nH]c(=O)c3cc(F)cc(c23)N[C@@H]1c1ccc(F)cc1` + CN1CCN(c2cc(C(=O)Nc3cc4cc(-c5cnn(C)c5)ccc4cn3)ccn2)CC1 has a viability, T/C of 69%.

Same assay, conditions: second compound 0.1 µM; first compound 0.01 µM; active compounds read low

`Cn1ncnc1[C@H]1c2n[nH]c(=O)c3cc(F)cc(c23)N[C@@H]1c1ccc(F)cc1` + CN1CCN(c2cc(C(=O)Nc3cc4cc(-c5cnn(C)c5)ccc4cn3)ccn2)CC1 was tested, and the viability, T/C was 82.6%.

Same assay, conditions: second compound 0.1 µM; first compound 0.0316 µM; active compounds read low

First: Nc1ccn(C2OC(CO)C(O)C2(F)F)c(=O)n1 (stereo unspecified) + CNC(=O)c1ccc(Nc2nc(OC3CCCC3)c3c(-c4ccc5nc(C)oc5c4)c[nH]c3n2)c(OC)c1
Second: CC(Nc1ccc2c(c1)OCCn1cc(N3C(=O)OCC3C(F)F)nc1-2)C(N)=O (stereo unspecified) + CNC(=O)c1ccc(Nc2nc(OC3CCCC3)c3c(-c4ccc5nc(C)oc5c4)c[nH]c3n2)c(OC)c1
The viability, T/C of the first is lower: 15.8% for the first, 53.9% for the second.

Going from `O=c1[nH]cc(F)c(=O)[nH]1` + CNC(=O)c1ccc(Nc2nc(OC3CCCC3)c3c(-c4ccc5nc(C)oc5c4)c[nH]c3n2)c(OC)c1 to `Cn1ncnc1[C@H]1c2n[nH]c(=O)c3cc(F)cc(c23)N[C@@H]1c1ccc(F)cc1` + CN1CCN(c2cc(C(=O)Nc3cc4cc(-c5cnn(C)c5)ccc4cn3)ccn2)CC1, the viability, T/C falls from 70.6% to 69.8%.

`Nc1ccccc1NC(=O)c1ccc(CNC(=O)OCc2cccnc2)cc1` + CNC(=O)c1ccc(Nc2nc(OC3CCCC3)c3c(-c4ccc5nc(C)oc5c4)c[nH]c3n2)c(OC)c1 gave a viability, T/C of 91.9%.

Same assay, conditions: second compound 0.1 µM; first compound 0.1 µM; active compounds read low

First: Nc1ccn(C2OC(CO)C(O)C2(F)F)c(=O)n1 (stereo unspecified) + CNC(=O)c1ccc(Nc2nc(OC3CCCC3)c3c(-c4ccc5nc(C)oc5c4)c[nH]c3n2)c(OC)c1
Second: CC(Nc1ccc2c(c1)OCCn1cc(N3C(=O)OCC3C(F)F)nc1-2)C(N)=O (stereo unspecified) + CNC(=O)c1ccc(Nc2nc(OC3CCCC3)c3c(-c4ccc5nc(C)oc5c4)c[nH]c3n2)c(OC)c1
The viability, T/C of the first is lower: 13.3% for the first, 39.9% for the second.

Compared with `O=c1[nH]cc(F)c(=O)[nH]1` + CNC(=O)c1ccc(Nc2nc(OC3CCCC3)c3c(-c4ccc5nc(C)oc5c4)c[nH]c3n2)c(OC)c1, `Cn1ncnc1[C@H]1c2n[nH]c(=O)c3cc(F)cc(c23)N[C@@H]1c1ccc(F)cc1` + CN1CCN(c2cc(C(=O)Nc3cc4cc(-c5cnn(C)c5)ccc4cn3)ccn2)CC1 is lower in viability, T/C: 66.2% for the first, 58.6% for the second.

`Nc1ccccc1NC(=O)c1ccc(CNC(=O)OCc2cccnc2)cc1` + CNC(=O)c1ccc(Nc2nc(OC3CCCC3)c3c(-c4ccc5nc(C)oc5c4)c[nH]c3n2)c(OC)c1 gave a viability, T/C of 96.8%.

Same assay, conditions: second compound 0.1 µM; first compound 0.316 µM; active compounds read low

Going from `Nc1ccn(C2OC(CO)C(O)C2(F)F)c(=O)n1` (stereo unspecified) + CNC(=O)c1ccc(Nc2nc(OC3CCCC3)c3c(-c4ccc5nc(C)oc5c4)c[nH]c3n2)c(OC)c1 to `CC(Nc1ccc2c(c1)OCCn1cc(N3C(=O)OCC3C(F)F)nc1-2)C(N)=O` (stereo unspecified) + CNC(=O)c1ccc(Nc2nc(OC3CCCC3)c3c(-c4ccc5nc(C)oc5c4)c[nH]c3n2)c(OC)c1, the viability, T/C rises from 13.3% to 35.2%.

Going from `O=c1[nH]cc(F)c(=O)[nH]1` + CNC(=O)c1ccc(Nc2nc(OC3CCCC3)c3c(-c4ccc5nc(C)oc5c4)c[nH]c3n2)c(OC)c1 to `Nc1ccccc1NC(=O)c1ccc(CNC(=O)OCc2cccnc2)cc1` + CNC(=O)c1ccc(Nc2nc(OC3CCCC3)c3c(-c4ccc5nc(C)oc5c4)c[nH]c3n2)c(OC)c1, the viability, T/C rises from 64.2% to 88%.
